Experimental data taken from ChEMBL document CHEMBL5241130, “Integrating a phenotypic screening with a structural simplification strategy to identify 4-phenoxy-quinoline derivatives to potently disrupt the mitotic localization of Aurora kinase B” (Bioorg Med Chem, 2023).
Activity calls are given as the source filed them. The calls are words filed in the database; no cut-off is given here.

Key:
[1] = target: Aurora kinase B (Homo sapiens) (UniProt Q96GD4); test: Disruption of mitotic localization of AURKB in human RPE-MYC H2B-GFP cells assessed as induction of mitotic arrest measured after 24 hrs by fluorescence high content cell imaging analysis; type: cell-based
[2] = target: Aurora kinase B (Homo sapiens) (UniProt Q96GD4); test: Disruption of mitotic localization of AURKB in human RPE-MYC H2B-GFP cells assessed as induction of polyploidy by fluorescence high content cell imaging analysis; type: cell-based
[3] = tested on: NCI-H23; test: Cytotoxicity against human NCI-H23 cells assessed as cell growth inhibition incubated for 3 days by MTT assay; type: functional, cell-based; details: time 3.0 day
[4] = target: Aurora kinase B (Homo sapiens) (UniProt Q96GD4); test: Disruption of mitotic localization of AURKB in human RPE-MYC H2B-GFP cells assessed as induction of mitotic arrest by fluorescence high content cell imaging analysis; type: cell-based
[5] = tested on: MDA-MB-231; test: Cytotoxicity against human MDA-MB-231 cells assessed as cell growth inhibition incubated for 3 days by MTT assay; type: functional, cell-based; details: time 3.0 day
[6] = tested on: SW480; test: Cytotoxicity against human SW480 cells assessed as cell growth inhibition incubated for 3 days by MTT assay; type: functional, cell-based; details: time 3.0 day
[7] = tested on: HeLa; test: Cytotoxicity against human HeLa cells assessed as cell growth inhibition incubated for 3 days by MTT assay; type: functional, cell-based; details: time 3.0 day
[8] = target: Aurora kinase B (Homo sapiens) (UniProt Q96GD4); test: Inhibition of AURKB in human RPE-MYC H2B-GFP cells assessed as inhibition of histone H3 phosphorylation at Ser10 residue at 8XMEC measured after 6 hrs by immunofluorescence staining analysis; type: cell-based
[9] = target: Aurora kinase B (Homo sapiens) (UniProt Q96GD4); test: Disruption of mitotic localization of AURKB in human RPE-MYC cells expressing BCL2 assessed as disruption of PLK1 localization at spindle mid-zone at 40 nM measured after 6 hrs by immunofluorescence staining analysis; type: cell-based
[10] = target: Aurora kinase B (Homo sapiens) (UniProt Q96GD4); test: Disruption of mitotic localization of AURKB in human RPE-MYC H2B-GFP cells assessed as induction of polyploidy by fluorescence high content cell imaging analysis relative to control; type: cell-based
[11] = target: Aurora kinase B (Homo sapiens) (UniProt Q96GD4); test: Disruption of mitotic localization of AURKB at the spindle mid-zone and equatorial cortex in human RPE-MYC cells expressing BCL2 at 40 nM measured after 6 hrs by immunofluorescence staining analysis; type: cell-based
[12] = target: Aurora kinase B (Homo sapiens) (UniProt Q96GD4); test: Disruption of mitotic localization of AURKB in human RPE-MYC cells expressing BCL2 assessed as disruption of MKLP1 localization at spindle mid-zone at 40 nM measured after 6 hrs by immunofluorescence staining analysis; type: cell-based
[13] = tested on: NCI-N87; test: Cytotoxicity against human NCI-N87 cells assessed as cell growth inhibition incubated for 3 days by MTT assay; type: functional, cell-based; details: time 3.0 day
[14] = tested on: A549; test: Cytotoxicity against human A549 cells assessed as cell growth inhibition incubated for 3 days by MTT assay; type: functional, cell-based; details: time 3.0 day
[15] = target: T1, Aurora kinase A (Homo sapiens) (UniProt O14965); test: Inhibition of AURKA in human RPE-MYC H2B-GFP cells assessed as inhibition of autophosphorylation of AURKA at Thr288 residue at 8XMEC measured after 6 hrs by immunofluorescence staining analysis; type: cell-based
T1 sequence (whole entry): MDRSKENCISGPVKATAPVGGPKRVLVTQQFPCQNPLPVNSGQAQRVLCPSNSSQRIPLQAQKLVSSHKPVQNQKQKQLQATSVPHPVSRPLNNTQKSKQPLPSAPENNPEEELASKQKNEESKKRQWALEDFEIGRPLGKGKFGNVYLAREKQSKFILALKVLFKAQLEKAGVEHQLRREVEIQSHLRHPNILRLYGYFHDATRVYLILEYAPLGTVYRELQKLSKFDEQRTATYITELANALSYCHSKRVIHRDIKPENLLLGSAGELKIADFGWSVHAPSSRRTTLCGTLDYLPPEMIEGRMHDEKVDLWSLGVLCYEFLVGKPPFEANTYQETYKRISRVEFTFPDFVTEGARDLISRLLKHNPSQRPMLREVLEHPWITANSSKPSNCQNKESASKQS

[16] = tested on: HCT-116; test: Cytotoxicity against human HCT-116 cells assessed as cell growth inhibition incubated for 3 days by MTT assay; type: functional, cell-based; details: time 3.0 day
[17] = target: Aurora kinase B (Homo sapiens) (UniProt Q96GD4); test: Disruption of mitotic localization of AURKB in human RPE-MYC H2B-GFP cells assessed as mitotic index at 0.312 uM measured after 6 hrs by fluorescence high content cell imaging analysis (reference value: 4.7+/-0.4%); type: cell-based
[18] = target: Aurora kinase B (Homo sapiens) (UniProt Q96GD4); test: Inhibition of AURKB in human RPE-MYC H2B-GFP cells assessed as inhibition of histone H3 phosphorylation at Ser10 residue by measuring residual enzyme activity at 0.312 uM measured after 6 hrs by immunofluorescence staining analysis (reference value: 100 +/-9%); type: cell-based
[19] = target: T1, Aurora kinase A (Homo sapiens); test: Inhibition of AURKA in human RPE-MYC H2B-GFP cells assessed as inhibition of autophosphorylation of AURKA at Thr288 residue by measuring residual enzyme activity at 0.156 uM measured after 6 hrs by immunofluorescence staining analysis (reference value: 100 +/-1%); type: cell-based
[20] = target: T1, Aurora kinase A (Homo sapiens); test: Inhibition of AURKA in human RPE-MYC H2B-GFP cells assessed as inhibition of autophosphorylation of AURKA at Thr288 residue by measuring residual enzyme activity at 0.078 uM measured after 6 hrs by immunofluorescence staining analysis (reference value: 100 +/-1%); type: cell-based
[21] = target: T1, Aurora kinase A (Homo sapiens); test: Inhibition of AURKA in human RPE-MYC H2B-GFP cells assessed as inhibition of autophosphorylation of AURKA at Thr288 residue by measuring residual enzyme activity at 0.312 uM measured after 6 hrs by immunofluorescence staining analysis (reference value: 100 +/-1%); type: cell-based
[22] = target: Aurora kinase B (Homo sapiens) (UniProt Q96GD4); test: Disruption of mitotic localization of AURKB in human RPE-MYC H2B-GFP cells assessed as mitotic index at 0.156 uM measured after 6 hrs by fluorescence high content cell imaging analysis (reference value: 4.7+/-0.4%); type: cell-based
[23] = target: Aurora kinase B (Homo sapiens) (UniProt Q96GD4); test: Disruption of mitotic localization of AURKB in human RPE-MYC H2B-GFP cells assessed as proportion of polyploid cells in fully attached cell population at 0.156 uM measured after 48 hrs by fluorescence high content cell imaging analysis (Rvb <1%); type: cell-based
[24] = target: Aurora kinase B (Homo sapiens) (UniProt Q96GD4); test: Disruption of mitotic localization of AURKB in human RPE-MYC H2B-GFP cells assessed as mitotic index at 0.078 uM measured after 6 hrs by fluorescence high content cell imaging analysis (reference value: 4.7+/-0.4%); type: cell-based
[25] = target: Aurora kinase B (Homo sapiens) (UniProt Q96GD4); test: Inhibition of AURKB in human RPE-MYC H2B-GFP cells assessed as inhibition of histone H3 phosphorylation at Ser10 residue by measuring residual enzyme activity at 0.078 uM measured after 6 hrs by immunofluorescence staining analysis (reference value: 100 +/-9%); type: cell-based
[26] = target: Aurora kinase B (Homo sapiens) (UniProt Q96GD4); test: Inhibition of AURKB in human RPE-MYC H2B-GFP cells assessed as inhibition of histone H3 phosphorylation at Ser10 residue by measuring residual enzyme activity at 0.156 uM measured after 6 hrs by immunofluorescence staining analysis (reference value: 100 +/-9%); type: cell-based
[27] = target: Aurora kinase B (Homo sapiens) (UniProt Q96GD4); test: Disruption of mitotic localization of AURKB in human RPE-MYC H2B-GFP cells assessed as proportion of polyploid cells in fully attached cell population at 0.312 uM measured after 48 hrs by fluorescence high content cell imaging analysis (Rvb <1%); type: cell-based
[28] = target: Aurora kinase B (Homo sapiens) (UniProt Q96GD4); test: Disruption of mitotic localization of AURKB in human RPE-MYC H2B-GFP cells assessed as proportion of polyploid cells in fully attached cell population at 0.078 uM measured after 48 hrs by fluorescence high content cell imaging analysis (Rvb <1%); type: cell-based

Sequence of Aurora kinase B (Homo sapiens) (Q96GD4 whole entry): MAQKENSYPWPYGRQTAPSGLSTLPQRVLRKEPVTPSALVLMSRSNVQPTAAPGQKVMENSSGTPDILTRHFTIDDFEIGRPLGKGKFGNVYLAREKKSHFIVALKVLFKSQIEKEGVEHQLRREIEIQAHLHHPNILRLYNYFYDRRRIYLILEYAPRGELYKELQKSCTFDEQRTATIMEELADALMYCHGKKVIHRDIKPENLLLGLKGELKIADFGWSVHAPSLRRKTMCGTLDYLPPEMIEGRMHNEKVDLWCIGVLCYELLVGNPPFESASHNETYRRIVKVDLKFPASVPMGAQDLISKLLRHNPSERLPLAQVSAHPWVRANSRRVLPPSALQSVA

MEC [1] | MEC [2] | SMILES | further results
0.039 µM | 0.078 µM | COc1cc(NC(C)=O)cc(Oc2ccnc3cc(OC)c(OC)cc23)c1 | –
0.625 µM | 0.625 µM | COC(=O)c1ccc(OC)c(Oc2ccnc3ccccc23)c1 | –
0.01 µM | 0.01 µM | COc1cc(NC(C)=O)cc(Oc2ccnc3ccc(F)cc23)c1 | Activity [3]: Active; Activity [4]: inactive; Activity [5]: Active; Activity [6]: Active; Activity [7]: Active; inhibition [8]: < 40%; Activity [9]: Active; Activity [10]: 100%; Activity [11]: Active; Activity [12]: Active; Activity [13]: Active; Activity [14]: Active; inhibition [15]: < 40%; Activity [16]: Active
10 µM | 10 µM | COC(=O)c1cccc(Oc2ccnc3ccccc23)c1 | –
10 µM | 10 µM | CC(=O)c1cccc(Oc2ccnc3ccccc23)c1 | –
> 40 µM | > 40 µM | COc1cc(Oc2ccnc3cc(C(F)(F)F)ccc23)cc(-n2cccn2)c1 | –
0.012 µM | 0.012 µM | COc1cc(Oc2ccnc3ccc(OC)cc23)cc(-n2cccn2)c1 | Activity [3]: Active; Activity [4]: inactive; Activity [5]: Active; Activity [6]: Active; Activity [7]: Active; inhibition [8]: < 40%; Activity [9]: Active; Activity [10]: 100%; Activity [11]: Active; Activity [12]: Active; Activity [13]: Active; Activity [14]: Active; inhibition [15]: < 40%; Activity [16]: Active
0.039 µM | 0.078 µM | COC(=O)c1cc2c(Oc3cc(OC)cc(-n4cccn4)c3)ccnc2cc1OC | –
> 40 µM | > 40 µM | c1ccc(Oc2ccnc3ccccc23)cc1 | –
0.02 µM | 0.02 µM | COC(=O)c1cc(OC)cc(Oc2ccnc3ccccc23)c1 | –
0.625 µM | 1.25 µM | CNC(=O)c1cc(OC)cc(Oc2ccnc3ccccc23)c1 | –
20 µM | 20 µM | COc1cc(Oc2ccnc3cc(Cl)ccc23)cc(-n2cccn2)c1 | –
> 40 µM | > 40 µM | COc1ccc(Oc2ccnc3ccccc23)cc1 | –
40 µM | 40 µM | COC(=O)c1ccc(Oc2ccnc3ccccc23)cc1 | –
> 40 µM | > 40 µM | COc1cc(Oc2ccnc3ccccc23)cc(C(=O)O)c1 | –
5 µM | 5 µM | COc1cc(Oc2ccnc3cc(OC)ccc23)cc(-n2cccn2)c1 | –

MEC [1] | MEC [2] | SMILES | further results
40 µM | 40 µM | Nc1cccc(Oc2ccnc3ccccc23)c1 | –
0.625 µM | 0.625 µM | COc1cc(Oc2ccnc3ccccc23)cc(-c2nc(C)no2)c1 | –
> 40 µM | > 40 µM | O=Cc1cccc(Oc2ccnc3ccccc23)c1 | –
5 µM | 5 µM | COc1cccc(Oc2ccnc3ccccc23)c1 | –
0.012 µM | 0.012 µM | COc1cc(Oc2ccnc3cc(OC)c(OC)cc23)cc(-n2cccn2)c1 | Activity [3]: Active; Activity [4]: inactive; Activity [5]: Active; Activity [6]: Active; Activity [7]: Active; inhibition [8]: < 40%; Activity [9]: Active; Activity [10]: 100%; Activity [11]: Active; Activity [12]: Active; Activity [13]: Active; Activity [14]: Active; inhibition [15]: < 40%; Activity [16]: Active
0.625 µM | 0.625 µM | COc1cc(NC(C)=O)cc(Oc2ccnc3cc(OC)c(C(N)=O)cc23)c1 | –
0.078 µM | 0.078 µM | COc1cc(OC)cc(Oc2ccnc3ccccc23)c1 | –
1.25 µM | 1.25 µM | COC(=O)c1cc2c(Oc3cc(NC(C)=O)cc(OC)c3)ccnc2cc1OC | –
0.078 µM | 0.078 µM | COc1cc(Oc2ccnc3ccccc23)cc(-n2cccn2)c1 | –
– | – | Cc1csc(-c2nnc(Nc3ccc(Oc4ccnc5ccccc45)cc3)c3ccccc23)c1 | Activity [17]: 10.1%; Activity [18]: 0%; Activity [19]: 100%; Activity [20]: 100%; Activity [21]: 100%; Activity [22]: 9.8%; Activity [23]: 100%; Activity [24]: 11%; Activity [25]: 98%; Activity [26]: 21.4%; Activity [27]: 100%; Activity [28]: 100%
> 40 µM | > 40 µM | O=C(NC1CCCC1)c1cccc(Oc2ccnc3ccccc23)c1 | –
10 µM | 10 µM | CCOC(=O)c1cccc(Oc2ccnc3ccccc23)c1 | –
0.052 µM | 0.052 µM | COc1cc(Oc2ccnc3ccc(F)cc23)cc(-n2cccn2)c1 | –
1.25 µM | 1.25 µM | COc1cc(Oc2ccnc3ccccc23)cc(C(F)(F)F)c1 | –
0.078 µM | 0.078 µM | COc1cc(NC(C)=O)cc(Oc2ccnc3ccccc23)c1 | –
